Assay results published in ChEMBL document CHEMBL3352578 (J Med Chem, 2014).
The source made the active and inactive calls. No cut-off for these calls is given here.

system: not listed separately; assay: Oral bioavailability in Sprague-Dawley rat at 10 mg/kg; type: ADME, organism-based; details: in vivo

bioavailability	Structure (SMILES)
34%	O=c1c(Cl)c(N2CCC(c3ccccc3)CC2)ccn1CC1CC1
25%	CC(C)Cn1ccc(N2CCC(c3ccccc3)CC2)c(Cl)c1=O
51%	N#Cc1c(N2CCC(c3ccccc3)CC2)ccn(CC2CC2)c1=O

system: Rattus norvegicus; assay: Positive allosteric modulation of mGlu2 receptor in Sprague-Dawley rat sleep-wake EEG paradigm model assessed as effect on active wake stage at 3 mg/kg, po after 4 hrs by electroencephalogram analysis; type: functional, organism-based; parameters: dose 3 mg/kg; details: not given

Structure (SMILES)	Activity
O=c1c(Cl)c(N2CCC(c3ccccc3)CC2)ccn1CC1CC1	inactive
CC(C)Cn1ccc(N2CCC(c3ccccc3)CC2)c(Cl)c1=O	inactive
N#Cc1c(N2CCC(c3ccccc3)CC2)ccn(CC2CC2)c1=O	inactive

system: Rattus norvegicus; assay: Positive allosteric modulation of mGlu2 receptor in Sprague-Dawley rat sleep-wake EEG paradigm model assessed as effect on intermediate state at 3 mg/kg, po after 4 hrs by electroencephalogram analysis; type: functional, organism-based; parameters: dose 3 mg/kg; details: not given

Structure (SMILES)	Activity
O=c1c(Cl)c(N2CCC(c3ccccc3)CC2)ccn1CC1CC1	inactive
CC(C)Cn1ccc(N2CCC(c3ccccc3)CC2)c(Cl)c1=O	inactive
N#Cc1c(N2CCC(c3ccccc3)CC2)ccn(CC2CC2)c1=O	inactive

system: Rattus norvegicus; assay: Positive allosteric modulation of mGlu2 receptor in po dosed Sprague-Dawley rat assessed effect on sleep-wake EEG paradigm after 20 hrs by electroencephalogram analysis; type: functional; details: not given

Structure (SMILES)	MEC
O=c1c(Cl)c(N2CCC(c3ccccc3)CC2)ccn1CC1CC1	>986 ng/mL
CC(C)Cn1ccc(N2CCC(c3ccccc3)CC2)c(Cl)c1=O	407 ng/mL
N#Cc1c(N2CCC(c3ccccc3)CC2)ccn(CC2CC2)c1=O	420 ng/mL

same assay, conditions: Rattus norvegicus, Sprague-Dawley, po, 20 h; read-out: MED

Structure (SMILES)	minimal effective dose
O=c1c(Cl)c(N2CCC(c3ccccc3)CC2)ccn1CC1CC1	> 10 mg/kg
CC(C)Cn1ccc(N2CCC(c3ccccc3)CC2)c(Cl)c1=O	3 mg/kg
N#Cc1c(N2CCC(c3ccccc3)CC2)ccn(CC2CC2)c1=O	3 mg/kg

system: not listed separately; assay: Ratio of drug level in brain to plasma in Swiss mouse at 10 mg/kg, sc after 1 hr; type: ADME, organism-based; parameters: dose 10 mg/kg, route subcutaneous; details: brain and plasma, read-out: BPR

Kp at 1 h	Structure (SMILES)
0.9	O=c1c(Cl)c(N2CCC(c3ccccc3)CC2)ccn1CC1CC1
0.8	CC(C)Cn1ccc(N2CCC(c3ccccc3)CC2)c(Cl)c1=O
0.3	N#Cc1c(N2CCC(c3ccccc3)CC2)ccn(CC2CC2)c1=O

system: not listed separately; assay: Clearance in Sprague-Dawley rat at 2.5 mg/kg, iv; type: ADME, organism-based; parameters: dose 2.5 mg/kg, route intravenous; details: in vivo

clearance	Structure (SMILES)
24 mL/min/kg	O=c1c(Cl)c(N2CCC(c3ccccc3)CC2)ccn1CC1CC1
13 mL/min/kg	CC(C)Cn1ccc(N2CCC(c3ccccc3)CC2)c(Cl)c1=O
18 mL/min/kg	N#Cc1c(N2CCC(c3ccccc3)CC2)ccn(CC2CC2)c1=O

target: T1, Metabotropic glutamate receptor 2 (Homo sapiens, UniProt Q14416); assay: Positive allosteric modulation of human mGlu2 receptor expressed in CHO cells assessed as potentiation of glutamate-induced effect incubated for 30 mins prior to [35S]GTPgamma addition measured after 30 mins relative to glutamate; type: functional, cell-based; details: not given
Target sequence in this assay (Q14416 19-872 limits assumed): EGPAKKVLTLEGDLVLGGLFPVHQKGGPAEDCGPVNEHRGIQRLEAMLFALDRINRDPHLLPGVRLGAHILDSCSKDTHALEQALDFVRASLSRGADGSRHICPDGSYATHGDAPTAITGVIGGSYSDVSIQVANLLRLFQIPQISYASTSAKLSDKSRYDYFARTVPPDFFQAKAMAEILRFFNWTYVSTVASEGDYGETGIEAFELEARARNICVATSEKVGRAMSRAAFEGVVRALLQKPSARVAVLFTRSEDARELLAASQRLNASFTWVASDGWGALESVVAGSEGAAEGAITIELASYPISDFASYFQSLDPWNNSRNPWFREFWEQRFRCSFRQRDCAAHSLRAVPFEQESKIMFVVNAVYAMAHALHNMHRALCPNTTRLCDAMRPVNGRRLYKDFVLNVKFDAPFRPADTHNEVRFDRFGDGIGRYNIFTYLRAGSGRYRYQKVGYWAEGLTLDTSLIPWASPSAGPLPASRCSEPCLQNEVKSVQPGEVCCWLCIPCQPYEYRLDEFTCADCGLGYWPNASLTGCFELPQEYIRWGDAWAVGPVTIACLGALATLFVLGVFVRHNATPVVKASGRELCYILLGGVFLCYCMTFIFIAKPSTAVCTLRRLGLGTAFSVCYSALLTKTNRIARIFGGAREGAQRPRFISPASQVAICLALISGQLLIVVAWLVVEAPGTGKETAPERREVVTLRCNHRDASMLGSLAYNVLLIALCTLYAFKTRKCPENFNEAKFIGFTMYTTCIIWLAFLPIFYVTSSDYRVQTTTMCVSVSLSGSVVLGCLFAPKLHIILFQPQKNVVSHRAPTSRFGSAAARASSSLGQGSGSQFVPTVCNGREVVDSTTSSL

Emax	Structure (SMILES)
234%	N#Cc1c(N2CCC(c3cc(F)cc(F)c3)CC2)ccn(CC2CC2)c1=O
259%	O=c1c(Cl)c(N2CCC(c3ccccc3)CC2)ccn1CC1CC1
268%	N#Cc1c(N2CCC(c3cccc(F)c3)CC2)ccn(CC2CC2)c1=O
316%	N#Cc1c(N2CCC(c3ccccc3)CC2)ccn(CCC2CC2)c1=O
304%	CC(C)CCn1ccc(N2CCN(Cc3ccccc3)CC2)c(C#N)c1=O
231%	CC(C)CCn1ccc(N2CCCC(c3ccccc3)C2)c(C#N)c1=O (stereo not given)
260%	CC(C)Cn1ccc(N2CCC(c3ccccc3)CC2)c(Cl)c1=O
168%	CC(C)CCn1ccc(CCc2ccccc2)c(C#N)c1=O
309%	CCCCn1ccc(N2CCC(c3ccccc3)CC2)c(C#N)c1=O
304%	CC(C)CCn1ccc(N2CCN(c3ccccn3)CC2)c(C#N)c1=O
309%	N#Cc1c(N2CCC(c3ccccc3)CC2)ccn(CC2CC2)c1=O
265%	COc1ccccc1C1CCN(c2ccn(CC3CC3)c(=O)c2C#N)CC1
249%	CC(C)CCn1ccc(N(C)Cc2ccccc2)c(C#N)c1=O
272%	N#Cc1c(N2CCC(c3ccc(F)cc3F)CC2)ccn(CC2CC2)c1=O
249%	N#Cc1c(N2CCC(c3ccc(Cl)cc3)CC2)ccn(CC2CC2)c1=O

system: Rattus norvegicus; assay: Positive allosteric modulation of mGlu2 receptor in Sprague-Dawley rat sleep-wake EEG paradigm model assessed as effect on light sleep stage at 3 mg/kg, po after 4 hrs by electroencephalogram analysis; type: functional, organism-based; parameters: dose 3 mg/kg; details: not given

Structure (SMILES)	Activity
O=c1c(Cl)c(N2CCC(c3ccccc3)CC2)ccn1CC1CC1	inactive
CC(C)Cn1ccc(N2CCC(c3ccccc3)CC2)c(Cl)c1=O	inactive
N#Cc1c(N2CCC(c3ccccc3)CC2)ccn(CC2CC2)c1=O	inactive

system: Rattus norvegicus; assay: Positive allosteric modulation of mGlu2 receptor in Sprague-Dawley rat sleep-wake EEG paradigm model assessed as effect on deep sleep stage at 3 mg/kg, po after 4 hrs by electroencephalogram analysis; type: functional, organism-based; parameters: dose 3 mg/kg; details: not given

Structure (SMILES)	Activity
O=c1c(Cl)c(N2CCC(c3ccccc3)CC2)ccn1CC1CC1	inactive
CC(C)Cn1ccc(N2CCC(c3ccccc3)CC2)c(Cl)c1=O	inactive
N#Cc1c(N2CCC(c3ccccc3)CC2)ccn(CC2CC2)c1=O	inactive

system: not listed separately; assay: Metabolic stability in rat liver microsomes assessed as compound metabolized at 5 uM after 15 mins by MS/MS analysis in presence of NADPH; type: ADME; details: read-out: Drug metabolism

metabolised at 0.25 h, 5 µM	Structure (SMILES)
45%	N#Cc1c(N2CCC(c3cc(F)cc(F)c3)CC2)ccn(CC2CC2)c1=O
30%	O=c1c(Cl)c(N2CCC(c3ccccc3)CC2)ccn1CC1CC1
37%	N#Cc1c(N2CCC(c3cccc(F)c3)CC2)ccn(CC2CC2)c1=O
61%	N#Cc1c(N2CCC(c3ccccc3)CC2)ccn(CCC2CC2)c1=O
85%	CC(C)CCn1ccc(N2CCN(Cc3ccccc3)CC2)c(C#N)c1=O
98%	CC(C)CCn1ccc(N2CCCC(c3ccccc3)C2)c(C#N)c1=O (stereo not given)
31%	CC(C)Cn1ccc(N2CCC(c3ccccc3)CC2)c(Cl)c1=O
99%	CC(C)CCn1ccc(CCc2ccccc2)c(C#N)c1=O
62%	CCCCn1ccc(N2CCC(c3ccccc3)CC2)c(C#N)c1=O
54%	CC(C)CCn1ccc(N2CCN(c3ccccn3)CC2)c(C#N)c1=O
44%	N#Cc1c(N2CCC(c3ccccc3)CC2)ccn(CC2CC2)c1=O
68%	COc1ccccc1C1CCN(c2ccn(CC3CC3)c(=O)c2C#N)CC1
100%	CC(C)CCn1ccc(N(C)Cc2ccccc2)c(C#N)c1=O
34%	N#Cc1c(N2CCC(c3ccc(F)cc3F)CC2)ccn(CC2CC2)c1=O
21%	N#Cc1c(N2CCC(c3ccc(Cl)cc3)CC2)ccn(CC2CC2)c1=O

system: not listed separately; assay: Elimination half life in Sprague-Dawley rat at 2.5 mg/kg, iv; type: ADME, organism-based; parameters: dose 2.5 mg/kg, route intravenous; details: in vivo, read-out: beta t1/2 (converted)

half-life	Structure (SMILES)
3.5 h	O=c1c(Cl)c(N2CCC(c3ccccc3)CC2)ccn1CC1CC1
2.6 h	CC(C)Cn1ccc(N2CCC(c3ccccc3)CC2)c(Cl)c1=O
2.1 h	N#Cc1c(N2CCC(c3ccccc3)CC2)ccn(CC2CC2)c1=O

system: not listed separately; assay: AUC (0 to infinity) in Sprague-Dawley rat at 10 mg/kg, po; type: ADME, organism-based; parameters: time infinity, dose 10 mg/kg, route oral; details: plasma

AUC(0-inf)	Structure (SMILES)
2310 ng·h/mL	O=c1c(Cl)c(N2CCC(c3ccccc3)CC2)ccn1CC1CC1
3460 ng·h/mL	CC(C)Cn1ccc(N2CCC(c3ccccc3)CC2)c(Cl)c1=O
4350 ng·h/mL	N#Cc1c(N2CCC(c3ccccc3)CC2)ccn(CC2CC2)c1=O

target: hERG (KCNH2) (Homo sapiens, UniProt Q12809); assay: Inhibition of human ERG channel transfected in HEK293 cells at 3 uM by patch clamp technique; type: cell-based; details: HEK293 cells transfected with human ERG channel
Sequence (Q12809 whole entry): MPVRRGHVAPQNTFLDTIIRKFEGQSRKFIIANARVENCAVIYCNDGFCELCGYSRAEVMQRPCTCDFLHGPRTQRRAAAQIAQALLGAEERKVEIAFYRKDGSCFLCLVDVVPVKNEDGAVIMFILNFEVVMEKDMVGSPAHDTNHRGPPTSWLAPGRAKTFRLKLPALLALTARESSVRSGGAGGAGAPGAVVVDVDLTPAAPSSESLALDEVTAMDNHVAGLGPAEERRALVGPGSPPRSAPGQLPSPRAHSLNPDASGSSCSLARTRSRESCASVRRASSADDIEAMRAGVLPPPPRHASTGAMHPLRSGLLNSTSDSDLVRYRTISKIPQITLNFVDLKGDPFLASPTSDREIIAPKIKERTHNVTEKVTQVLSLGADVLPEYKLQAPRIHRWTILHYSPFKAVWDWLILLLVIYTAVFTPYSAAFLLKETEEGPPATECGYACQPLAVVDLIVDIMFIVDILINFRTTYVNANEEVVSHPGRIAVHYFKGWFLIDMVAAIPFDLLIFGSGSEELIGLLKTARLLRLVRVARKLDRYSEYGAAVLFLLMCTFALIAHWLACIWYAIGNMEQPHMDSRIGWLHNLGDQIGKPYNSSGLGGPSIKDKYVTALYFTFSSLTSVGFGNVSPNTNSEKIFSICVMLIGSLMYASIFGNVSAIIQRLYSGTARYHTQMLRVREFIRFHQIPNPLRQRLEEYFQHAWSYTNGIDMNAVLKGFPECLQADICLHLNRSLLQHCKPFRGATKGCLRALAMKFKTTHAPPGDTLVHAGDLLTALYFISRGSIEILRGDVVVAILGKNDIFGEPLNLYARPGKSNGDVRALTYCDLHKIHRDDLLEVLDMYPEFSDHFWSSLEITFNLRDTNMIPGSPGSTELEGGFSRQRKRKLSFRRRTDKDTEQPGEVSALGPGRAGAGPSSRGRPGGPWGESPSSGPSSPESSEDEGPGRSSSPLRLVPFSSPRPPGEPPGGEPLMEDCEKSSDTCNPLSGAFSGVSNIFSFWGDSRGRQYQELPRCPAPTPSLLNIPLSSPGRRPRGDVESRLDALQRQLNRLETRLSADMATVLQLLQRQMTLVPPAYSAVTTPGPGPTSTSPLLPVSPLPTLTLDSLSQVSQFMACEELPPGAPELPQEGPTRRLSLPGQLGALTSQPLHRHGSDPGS

Structure (SMILES)	inhibition at 3 µM
N#Cc1c(N2CCC(c3cc(F)cc(F)c3)CC2)ccn(CC2CC2)c1=O	95%
O=c1c(Cl)c(N2CCC(c3ccccc3)CC2)ccn1CC1CC1	51%
N#Cc1c(N2CCC(c3cccc(F)c3)CC2)ccn(CC2CC2)c1=O	87%
CC(C)Cn1ccc(N2CCC(c3ccccc3)CC2)c(Cl)c1=O	24%
N#Cc1c(N2CCC(c3ccccc3)CC2)ccn(CC2CC2)c1=O	58%
COc1ccccc1C1CCN(c2ccn(CC3CC3)c(=O)c2C#N)CC1	65%

system: Rattus norvegicus; assay: Positive allosteric modulation of mGlu2 receptor in Sprague-Dawley rat sleep-wake EEG paradigm model assessed as effect on passive wake stage at 3 mg/kg, po after 4 hrs by electroencephalogram analysis; type: functional, organism-based; parameters: dose 3 mg/kg; details: not given

Structure (SMILES)	Activity
O=c1c(Cl)c(N2CCC(c3ccccc3)CC2)ccn1CC1CC1	inactive
CC(C)Cn1ccc(N2CCC(c3ccccc3)CC2)c(Cl)c1=O	inactive
N#Cc1c(N2CCC(c3ccccc3)CC2)ccn(CC2CC2)c1=O	inactive

system: not listed separately; assay: Metabolic stability in human liver microsomes assessed as compound metabolized at 5 uM after 15 mins by MS/MS analysis in presence of NADPH; type: ADME; details: read-out: Drug metabolism

metabolised at 0.25 h, 5 µM	Structure (SMILES)
30%	N#Cc1c(N2CCC(c3cc(F)cc(F)c3)CC2)ccn(CC2CC2)c1=O
17%	O=c1c(Cl)c(N2CCC(c3ccccc3)CC2)ccn1CC1CC1
35%	N#Cc1c(N2CCC(c3cccc(F)c3)CC2)ccn(CC2CC2)c1=O
50%	N#Cc1c(N2CCC(c3ccccc3)CC2)ccn(CCC2CC2)c1=O
38%	CC(C)CCn1ccc(N2CCN(Cc3ccccc3)CC2)c(C#N)c1=O
80%	CC(C)CCn1ccc(N2CCCC(c3ccccc3)C2)c(C#N)c1=O (stereo not given)
12%	CC(C)Cn1ccc(N2CCC(c3ccccc3)CC2)c(Cl)c1=O
91%	CC(C)CCn1ccc(CCc2ccccc2)c(C#N)c1=O
30%	CCCCn1ccc(N2CCC(c3ccccc3)CC2)c(C#N)c1=O
51%	CC(C)CCn1ccc(N2CCN(c3ccccn3)CC2)c(C#N)c1=O
25%	N#Cc1c(N2CCC(c3ccccc3)CC2)ccn(CC2CC2)c1=O
53%	COc1ccccc1C1CCN(c2ccn(CC3CC3)c(=O)c2C#N)CC1
69%	CC(C)CCn1ccc(N(C)Cc2ccccc2)c(C#N)c1=O
17%	N#Cc1c(N2CCC(c3ccc(F)cc3F)CC2)ccn(CC2CC2)c1=O
28%	N#Cc1c(N2CCC(c3ccc(Cl)cc3)CC2)ccn(CC2CC2)c1=O

system: not listed separately; assay: Cmax in Sprague-Dawley rat at 10 mg/kg, po; type: ADME, organism-based; parameters: dose 10 mg/kg, route oral; details: in vivo

Cmax	Structure (SMILES)
986 ng/mL	O=c1c(Cl)c(N2CCC(c3ccccc3)CC2)ccn1CC1CC1
1360 ng/mL	CC(C)Cn1ccc(N2CCC(c3ccccc3)CC2)c(Cl)c1=O
1410 ng/mL	N#Cc1c(N2CCC(c3ccccc3)CC2)ccn(CC2CC2)c1=O

system: not listed separately; assay: Tmax in Sprague-Dawley rat at 2.5 mg/kg, iv; type: ADME, organism-based; parameters: dose 2.5 mg/kg, route intravenous; details: in vivo

Tmax	Structure (SMILES)
0.5 h	O=c1c(Cl)c(N2CCC(c3ccccc3)CC2)ccn1CC1CC1
0.7 h	CC(C)Cn1ccc(N2CCC(c3ccccc3)CC2)c(Cl)c1=O
0.5 h	N#Cc1c(N2CCC(c3ccccc3)CC2)ccn(CC2CC2)c1=O

system: Rattus norvegicus; assay: Positive allosteric modulation of mGlu2 receptor in Sprague-Dawley rat sleep-wake EEG paradigm model assessed as reduction in REM sleep at 3 mg/kg, po after 4 hrs by electroencephalogram analysis; type: functional, organism-based; parameters: dose 3 mg/kg; details: not given

Structure (SMILES)	Activity
O=c1c(Cl)c(N2CCC(c3ccccc3)CC2)ccn1CC1CC1	inactive
CC(C)Cn1ccc(N2CCC(c3ccccc3)CC2)c(Cl)c1=O	Active
N#Cc1c(N2CCC(c3ccccc3)CC2)ccn(CC2CC2)c1=O	Active

target: T1, Metabotropic glutamate receptor 2; assay: Positive allosteric modulation of human mGlu2 receptor expressed in CHO cells assessed as potentiation of glutamate-induced effect incubated for 30 mins prior to [35S]GTPgamma addition measured after 30 mins; type: functional, cell-based; details: not given
Target sequence in this assay (Q14416 whole entry): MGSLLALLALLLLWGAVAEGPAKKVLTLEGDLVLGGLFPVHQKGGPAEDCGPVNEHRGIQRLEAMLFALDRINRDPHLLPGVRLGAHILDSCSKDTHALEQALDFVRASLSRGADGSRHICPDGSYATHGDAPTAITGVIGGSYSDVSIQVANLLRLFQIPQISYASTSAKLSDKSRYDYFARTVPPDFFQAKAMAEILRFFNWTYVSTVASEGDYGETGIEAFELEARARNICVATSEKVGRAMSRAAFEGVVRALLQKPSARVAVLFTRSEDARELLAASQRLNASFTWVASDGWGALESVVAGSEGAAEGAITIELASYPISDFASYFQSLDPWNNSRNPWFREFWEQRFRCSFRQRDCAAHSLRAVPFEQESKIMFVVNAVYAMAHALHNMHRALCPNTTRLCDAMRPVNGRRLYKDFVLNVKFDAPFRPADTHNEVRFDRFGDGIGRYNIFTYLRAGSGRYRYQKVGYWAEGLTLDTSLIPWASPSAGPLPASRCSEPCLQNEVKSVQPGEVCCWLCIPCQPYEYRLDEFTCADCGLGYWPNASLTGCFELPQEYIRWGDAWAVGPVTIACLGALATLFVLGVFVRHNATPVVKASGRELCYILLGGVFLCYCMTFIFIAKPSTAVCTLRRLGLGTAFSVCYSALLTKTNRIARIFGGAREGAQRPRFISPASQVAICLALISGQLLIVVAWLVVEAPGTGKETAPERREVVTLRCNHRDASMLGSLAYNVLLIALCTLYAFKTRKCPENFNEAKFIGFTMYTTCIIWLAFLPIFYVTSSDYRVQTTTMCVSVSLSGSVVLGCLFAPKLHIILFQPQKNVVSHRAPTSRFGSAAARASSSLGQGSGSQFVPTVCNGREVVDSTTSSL

EC50	Structure (SMILES)
151 nM	N#Cc1c(N2CCC(c3cc(F)cc(F)c3)CC2)ccn(CC2CC2)c1=O
170 nM	O=c1c(Cl)c(N2CCC(c3ccccc3)CC2)ccn1CC1CC1
141 nM	N#Cc1c(N2CCC(c3cccc(F)c3)CC2)ccn(CC2CC2)c1=O
178 nM	N#Cc1c(N2CCC(c3ccccc3)CC2)ccn(CCC2CC2)c1=O
4680 nM	CC(C)CCn1ccc(N2CCN(Cc3ccccc3)CC2)c(C#N)c1=O
3310 nM	CC(C)CCn1ccc(N2CCCC(c3ccccc3)C2)c(C#N)c1=O (stereo not given)
361 nM	CC(C)CCn1ccc(CCc2ccccc2)c(C#N)c1=O
95 nM	CCCCn1ccc(N2CCC(c3ccccc3)CC2)c(C#N)c1=O
3090 nM	CC(C)CCn1ccc(N2CCN(c3ccccn3)CC2)c(C#N)c1=O
151 nM	N#Cc1c(N2CCC(c3ccccc3)CC2)ccn(CC2CC2)c1=O
35 nM	COc1ccccc1C1CCN(c2ccn(CC3CC3)c(=O)c2C#N)CC1
10700 nM	CC(C)CCn1ccc(N(C)Cc2ccccc2)c(C#N)c1=O
68 nM	N#Cc1c(N2CCC(c3ccc(F)cc3F)CC2)ccn(CC2CC2)c1=O
48 nM	N#Cc1c(N2CCC(c3ccc(Cl)cc3)CC2)ccn(CC2CC2)c1=O
